Measured values: patent US9233932B2, “Oligomer-nitroimidazole anti-infective conjugates” (NEKTAR THERAPEUTICS, priority 2007, dated 2016)
Converted amounts (≈) assume the structure as drawn. Read-outs that look alike come from different tables or passages of the source.

Assays:
[1] = test system: Giardia intestinalis; assay: In vitro antigiardial activity assay; type: cell-based
Experimental: Metronidazole (from two different sources) and samples prepared in accordance with Examples 1 and 2 were tested using conventional antimicrobial assay techniques for in vitro antigiardial activity at six concentrations with three-fold dilutions (10, 3.3, 1.1, 0.37, 0.122, 0.04 μg/mL). IC50 values (inhibition concentration) were determined.

[2] = test system: Giardia intestinalis Portland-1 (ATCC 30888); assay: Minimum inhibitory concentration determination, micro-broth dilution, trophozoite motility; type: cell-based; details: for Fold Difference (Parent vs. Derivative): MIC of derivative relative to metronidazole; for activity relative to parent metronidazole: qualitative statement on MIC results
Experimental: Briefly, minimum inhibitory concentration was evaluated in an anti-protozoal assay against a protozoan strain, Giardia intestinalis Portland-1 (ATCC 30888), isolated from human. The organism, also referred to as Giardia lamblia, causes infection in the small intestine.
The susceptibility of G. intestinalis to the test compounds was determined using the micro-broth dilution analysis. The protozoan strain was cultured according to the supplier's recommendations. Thirteen milliliters of growth media (TYI-S-33 supplemented with bile) was inoculated with 100 μL of G. intestinalis growing culture and incubated at 37° C. for 72 hours. Following incubation, each test compound was diluted (in growth medium) to two times the high test concentration then further diluted in 1:2 increments to yield 11 test concentrations. Each test concentration (100 μL) was added in triplicate to designated wells on the plate. Trophozoites were added to each well of a 96-well round bottom plate in a volume of 100 μL at a density of 40,000 per well. The plates were cultured for 24 hours in an anaerobic chamber to assure the presence of low oxygen level.
Following the treatment incubation, cultures were visually evaluated for trophozoite motility. At each concentration, data was recorded as positive or negative for motility.
Each test compound was dissolved in DMSO to a final concentration of 80 mM. […] The starting high test concentration was to be as high as possible.

[3] = average IC50 converted with MW, read-out: μM IC50
[4] = replicate 1, six concentrations, three-fold dilutions 10-0.04 μg/mL
[5] = replicate 2, six concentrations, three-fold dilutions 10-0.04 μg/mL
[6] = replicate 3, six concentrations, three-fold dilutions 10-0.04 μg/mL
[7] = lowest concentration completely inhibiting trophozoite motility, 24 hours, anaerobic chamber

COCCOCCOCCOCCOCCOCCOCCOC(=O)OCCn1c([N+](=O)[O-])cnc1C [PEG7 Metronidazole carbonate, mPEG7 metronidazole carbonate]
IC50 [1, 3]: 7.51 µM | Average IC50 ([1]; average of IC50 1-3): 4.03 µg/mL | IC50 1 [1, 4]: 4.5 µg/mL (≈ 8.37 µM) | IC50 2 [1, 5]: 4.2 µg/mL (≈ 7.81 µM) | IC50 3 [1, 6]: 3.4 µg/mL (≈ 6.32 µM)

Cc1ncc([N+](=O)[O-])n1CCO [Metronidazole, reference compound]
IC50 ([1]; Giardia duodenalis, average IC50 converted with MW, read-out: μM IC50): 3.41 µM | IC50 ([1]; Giardia duodenalis, average of IC50 1-3, read-out: Average IC50): 0.58 µg/mL | IC50 ([1]; Giardia duodenalis, replicate 1, six concentrations, three-fold dilutions 10-0.04 μg/mL, read-out: IC50 1): 0.75 µg/mL | IC50 ([1]; Giardia duodenalis, replicate 2, six concentrations, three-fold dilutions 10-0.04 μg/mL, read-out: IC50 2): 0.3 µg/mL | IC50 ([1]; Giardia duodenalis, replicate 3, six concentrations, three-fold dilutions 10-0.04 μg/mL, read-out: IC50 3): 0.7 µg/mL | IC50 [1, 3]: 3.96 µM | Average IC50 ([1]; average of IC50 1-3): 0.68 µg/mL | MIC ([2]; Giardia duodenalis, ATCC30888, Giardia intestinalis, read-out: MIC): 3.9 µg/mL (≈ 22.8 µM) | MIC ([2]; Giardia duodenalis, ATCC30888, lowest concentration completely inhibiting trophozoite motility, 24 hours, anaerobic chamber, read-out: MIC): 3.9 µg/mL (≈ 22.8 µM) | Fold Difference (Parent vs. Derivative) [2]: 1

mPEG21, metronidazole carbonate [mPEG21 metronidazole carbonate]
Fold Difference (Parent vs. Derivative) [2]: 256 | MIC [2, 7]: 1000 µg/mL | activity relative to parent metronidazole [2]: reductions of activity

COCCOCCOCCOCCOCCOCCOCCOCCOCCOCCOCCOC(=O)OCCn1c([N+](=O)[O-])cnc1C [mPEG11 metronidazole carbonate]
Fold Difference (Parent vs. Derivative) [2]: 256 | MIC [2, 7]: 1000 µg/mL (≈ 1400 µM) | activity relative to parent metronidazole [2]: reductions of activity

COCCOCCOCCOC(=O)OCCn1c([N+](=O)[O-])cnc1C [mPEG3 metronidazole carbonate]
IC50 [1, 3]: 2.88 µM | Average IC50 ([1]; average of IC50 1-3): 1.04 µg/mL | IC50 1 [1, 4]: 0.82 µg/mL (≈ 2.27 µM) | IC50 2 [1, 5]: 1.1 µg/mL (≈ 3.04 µM) | IC50 3 [1, 6]: 1.2 µg/mL (≈ 3.32 µM) | MIC ([2]; Giardia intestinalis): 7.8 µg/mL (≈ 21.6 µM) | Fold Difference (Parent vs. Derivative) [2]: 2 | MIC [2, 7]: 7.8 µg/mL (≈ 21.6 µM)

mPEG1k metronidazole carbonate
Fold Difference (Parent vs. Derivative) [2]: >256 | MIC [2, 7]: >1000 µg/mL | activity relative to parent metronidazole [2]: reductions of activity
